{
  "source": "patent US11006595B2",
  "about": "“Rice cultivar designated ‘CL153’” (Board of Supervisors of Louisiana State University and …, priority 2016, dated 2021)",
  "data": [
    {"test_system": "‘CL153’ rice plant", "experiment": "Herbicide tolerance and susceptibility of rice cultivar 'CL153'", "assay_type": "in vivo, Oryza sativa", "conditions": "at levels of the herbicide that would normally inhibit the growth of a rice plant; partly actual observations, partly assumptions based on common ancestry with ‘CL161’", "text": "(§1) Among others, the herbicide tolerance and susceptibility characteristics of ‘CL153’ include or are expected to include the following.", "values": [
      {"smiles": "COCc1cnc(C2=NC(C)(C(C)C)C(=O)N2)c(C(=O)O)c1", "note": "(centres unmarked) [imazamox]", "resistance or sensitivity of ‘CL153’ to the herbicide": "resistant"},
      {"smiles": "COc1cc(OC)nc(NC(=O)NS(=O)(=O)c2ncccc2C(=O)N(C)C)n1", "note": "[nicosulfuron]", "resistance or sensitivity of ‘CL153’ to the herbicide": "resistant"},
      {"smiles": "Cc1cnc(C2=NC(=O)C(C)(C(C)C)N2)c(C(=O)O)c1", "note": "(centres unmarked) [imazapic]", "resistance or sensitivity of ‘CL153’ to the herbicide": "resistant"},
      {"smiles": "CCc1cnc(C2=NC(C)(C(C)C)C(=O)N2)c(C(=O)O)c1", "note": "(centres unmarked) [imazethapyr]", "resistance or sensitivity of ‘CL153’ to the herbicide": "resistant"},
      {"smiles": "COC(=O)c1ccccc1S(=O)(=O)NC(=O)Nc1nc(C)cc(C)n1", "note": "[sulfometuron methyl]", "resistance or sensitivity of ‘CL153’ to the herbicide": "sensitive"},
      {"smiles": "CCS(=O)(=O)c1cccnc1S(=O)(=O)NC(=O)Nc1nc(OC)cc(OC)n1", "note": "[rimsulfuron]", "resistance or sensitivity of ‘CL153’ to the herbicide": "sensitive"},
      {"smiles": "COC(=O)c1ccccc1S(=O)(=O)NC(=O)N(C)c1nc(C)nc(OC)n1", "note": "[tribenuron methyl]", "resistance or sensitivity of ‘CL153’ to the herbicide": "resistant"},
      {"smiles": "COC(=O)c1ccccc1S(=O)(=O)NC(=O)Nc1nc(C)nc(OC)n1", "note": "[metsulfuron methyl]", "resistance or sensitivity of ‘CL153’ to the herbicide": "resistant"},
      {"smiles": "COC(=O)c1sccc1S(=O)(=O)NC(=O)Nc1nc(C)nc(OC)n1", "note": "[thifensulfuron methyl]", "resistance or sensitivity of ‘CL153’ to the herbicide": "resistant"},
      {"smiles": "CC(C)C1(C)N=C(c2ncccc2C(=O)O)NC1=O", "note": "(centres unmarked) [imazapyr]", "resistance or sensitivity of ‘CL153’ to the herbicide": "resistant"},
      {"smiles": "CC(C)C1(C)N=C(c2nc3ccccc3cc2C(=O)O)NC1=O", "note": "(centres unmarked) [imazaquin]", "resistance or sensitivity of ‘CL153’ to the herbicide": "resistant"},
      {"smiles": "CCOC(=O)c1ccccc1S(=O)(=O)NC(=O)Nc1nc(Cl)cc(OC)n1", "note": "[chlorimuron ethyl]", "resistance or sensitivity of ‘CL153’ to the herbicide": "sensitive"}
    ]},
    {"test_system": "‘CL153’ rice plant", "experiment": "Herbicide tolerance and susceptibility of rice cultivar 'CL153'", "assay_type": "in vivo, Oryza sativa", "conditions": "general statement; profile essentially identical to ‘CL161’", "text": "as §1", "values": [
      {"smiles": "COCc1cnc(C2=NC(C)(C(C)C)C(=O)N2)c(C(=O)O)c1", "note": "(centres unmarked) [imazamox]", "resistance of ‘CL153’ to imidazolinone herbicides": "highly resistant"},
      {"smiles": "CCc1cnc(C2=NC(C)(C(C)C)C(=O)N2)c(C(=O)O)c1", "note": "(centres unmarked) [imazethapyr]", "resistance of ‘CL153’ to imidazolinone herbicides": "highly resistant"}
    ]}
  ]
}
